Reference: patent US20220118117A1, “MODULATORS OF METABOTROPIC GLUTAMATE RECEPTOR 4” (The General Hospital Corporation, priority 2019, published 2022)

Biological target: mGluR4 (Homo sapiens, UniProt Q14833)
Experiment: competitive binding (radioligand replacement) assay with [3H]4 in mGluR4 transfected CHO cells
Design: expressed in transfected cells; host or cells: CHO cells
Conditions: 2 nM [3H]4, read-out: IC50 (nM), affinity to mGluR4
Procedure: In Vitro mGluR4 Binding Assay. CHO cells expressing mGluR4 were used for all binding assay protocols. For competitive binding, 2 nM of [^3H]4 was used together with increased concentrations of test compounds ranging from 0.01 nM to 10 μM. Each test tube contained 50 000 freshly harvested CHO cells expressing mGluR4 cultured in HAMs cell culture medium with 100 nM of glutamate, penicillin-streptomycin (100 units), and 1 mM G418. [3H]4 (2 nM) was added to the cell extract with and without test compounds on ice and then incubated for 30 min at room temperature. Samples were centrifuged at 1200 rpm for 10 min at 4° C. and washed three times with a cold cell culture medium as a washing buffer. Samples were lysed by adding 100 μL of 0.5% NaOH and heated using a heating block (56° C., 30 min). Samples were cooled with an ice bath and transferred to Solvent-Saver scintillation vials (VWR International LLC.). To obtain binding parameters, the scintillation liquid (PerkinElmer, Optima Gold) was added prior to counting with a scintillation counter (Packard TriCarb Model, 1 min/vial). Nonspecific binding was determined using 10 μM of nonradioactive test compound, and specific binding was determined by extracting the nonspecific binding from total binding. All measurements were done in triplicate and analyzed with GraphPad Prism software (GraphPad Software Inc.).

Chain of mGluR4 (Q14833 33-912): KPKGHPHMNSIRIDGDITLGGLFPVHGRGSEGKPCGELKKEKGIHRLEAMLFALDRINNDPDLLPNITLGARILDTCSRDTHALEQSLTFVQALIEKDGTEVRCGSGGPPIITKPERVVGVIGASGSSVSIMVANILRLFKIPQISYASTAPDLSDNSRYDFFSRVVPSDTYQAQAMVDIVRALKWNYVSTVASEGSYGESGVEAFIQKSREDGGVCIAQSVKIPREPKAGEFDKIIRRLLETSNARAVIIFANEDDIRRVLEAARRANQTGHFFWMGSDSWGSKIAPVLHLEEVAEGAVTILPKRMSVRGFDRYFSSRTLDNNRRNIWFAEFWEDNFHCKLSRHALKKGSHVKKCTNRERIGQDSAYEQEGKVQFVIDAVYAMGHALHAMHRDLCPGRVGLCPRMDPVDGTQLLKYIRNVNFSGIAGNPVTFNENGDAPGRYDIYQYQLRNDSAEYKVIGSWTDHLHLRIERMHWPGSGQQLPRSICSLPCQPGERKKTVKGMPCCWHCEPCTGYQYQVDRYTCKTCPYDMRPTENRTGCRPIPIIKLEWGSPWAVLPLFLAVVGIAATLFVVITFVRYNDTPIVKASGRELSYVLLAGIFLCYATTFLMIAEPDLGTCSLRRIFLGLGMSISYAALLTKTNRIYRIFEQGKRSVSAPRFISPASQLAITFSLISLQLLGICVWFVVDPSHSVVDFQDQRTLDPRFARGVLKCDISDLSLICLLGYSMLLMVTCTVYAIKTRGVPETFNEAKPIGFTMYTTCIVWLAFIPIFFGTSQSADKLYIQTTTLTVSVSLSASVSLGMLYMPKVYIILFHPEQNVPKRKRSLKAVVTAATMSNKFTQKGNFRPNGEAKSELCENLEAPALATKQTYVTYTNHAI

## [2H]C([2H])(F)Sc1cc(NC(=O)c2ccccn2)ccc1Cl [Compound 15, N-(4-Chloro-3-((fluoromethyl-d2)thio)phenyl)picolinamide]
  IC50: 3.4 nM
